Experiments:
Assay type in all cases: functional
RXF 393 = assay: Growth inhibition of human RXF393 cells assessed as cell growth at 10^-7 M by sulforhodamine B assay; details: read-out: Activity
SF-295 = assay: Growth inhibition of human SF295 cells assessed as cell growth at 10^-7 M by sulforhodamine B assay; details: read-out: Activity
OVCAR-8 [1] = assay: Growth inhibition of human OVCAR8 cells by sulforhodamine B assay
KM12 = assay: Growth inhibition of human KM12 cells by sulforhodamine B assay
SNB-19 [2] = assay: Growth inhibition of human SNB19 cells assessed as cell growth at 10^-6 M by sulforhodamine B assay; details: read-out: Activity
NCI-H322M = assay: Growth inhibition of human NCI-H322M cells by sulforhodamine B assay
SNB-19 [3] = assay: Growth inhibition of human SNB19 cells by sulforhodamine B assay
HCT-116 = assay: Growth inhibition of human HCT116 cells by sulforhodamine B assay
MDA-MB-231 [4] = assay: Growth inhibition of human MDA-MB-231 cells assessed as cell growth at 10^-8 M by sulforhodamine B assay; details: read-out: Activity
NCI-H522 = assay: Growth inhibition of human NCI-H522 cells assessed as cell growth at 10^-6 M by sulforhodamine B assay; details: read-out: Activity
OVCAR-8 [5] = assay: Growth inhibition of human OVCAR8 cells assessed as cell growth at 10^-7 M by sulforhodamine B assay; details: read-out: Activity
SN12C = assay: Growth inhibition of human SN12C cells assessed as cell growth at 10^-4 M by sulforhodamine B assay; details: read-out: Activity
MDA-MB-231 [6] = assay: Growth inhibition of human MDA-MB-231 cells assessed as cell growth at 10^-4 M by sulforhodamine B assay; details: read-out: Activity
MOLT-4 = assay: Growth inhibition of human MOLT4 cells assessed as cell growth at 10^-6 M by sulforhodamine B assay; details: read-out: Activity
Malme-3M = assay: Growth inhibition of human MALME-3M cells assessed as cell growth at 10^-6 M by sulforhodamine B assay; details: read-out: Activity
UACC-257 [7] = assay: Growth inhibition of human UACC257 cells by sulforhodamine B assay
UACC-257 [8] = assay: Growth inhibition of human UACC257 cells assessed as cell growth at 10^-6 M by sulforhodamine B assay; details: read-out: Activity
SK-MEL-2 = assay: Growth inhibition of human SK-MEL-2 cells assessed as cell growth at 10^-4 M by sulforhodamine B assay; details: read-out: Activity
DU-145 = assay: Growth inhibition of human DU145 cells by sulforhodamine B assay
SK-MEL-28 = assay: Growth inhibition of human SK-MEL-28 cells assessed as cell growth at 10^-6 M by sulforhodamine B assay; details: read-out: Activity
[9] = Growth inhibition of human Hs 578T cells assessed as cell growth at 10^-4 M by sulforhodamine B assay; details: read-out: Activity
HOP-92 [10] = assay: Growth inhibition of human HOP92 cells assessed as cell growth at 10^-7 M by sulforhodamine B assay; details: read-out: Activity
PC-3 = assay: Growth inhibition of human PC3 cells assessed as cell growth at 10^-4 M by sulforhodamine B assay; details: read-out: Activity
CAKI-1 = assay: Growth inhibition of human CAKI-1 cells assessed as cell growth at 10^-4 M by sulforhodamine B assay; details: read-out: Activity
LOX IMVI = assay: Growth inhibition of human LOXIMVI cells assessed as cell growth at 10^-8 M by sulforhodamine B assay; details: read-out: Activity
OVCAR-3 = assay: Growth inhibition of human OVCAR3 cells assessed as cell growth at 10^-6 M by sulforhodamine B assay; details: read-out: Activity
HOP-92 [11] = assay: Growth inhibition of human HOP92 cells assessed as cell growth at 10^-8 M by sulforhodamine B assay; details: read-out: Activity
SK-OV-3 [12] = assay: Growth inhibition of human SKOV3 cells by sulforhodamine B assay
HOP-62 = assay: Growth inhibition of human HOP62 cells assessed as cell growth at 10^-4 M by sulforhodamine B assay; details: read-out: Activity
BT-549 = assay: Growth inhibition of human BT549 cells assessed as cell growth at 10^-7 M by sulforhodamine B assay; details: read-out: Activity
A498 = assay: Growth inhibition of human A498 cells by sulforhodamine B assay
OVCAR-5 = assay: Growth inhibition of human OVCAR5 cells assessed as cell growth at 10^-8 M by sulforhodamine B assay; details: read-out: Activity
[13] = Growth inhibition of human HCC2998 cells assessed as cell growth at 10^-4 M by sulforhodamine B assay; details: HCC 2998, read-out: Activity
T47D = assay: Growth inhibition of human T47D cells assessed as cell growth at 10^-4 M by sulforhodamine B assay; details: read-out: Activity
SF-268 = assay: Growth inhibition of human SF268 cells assessed as cell growth at 10^-8 M by sulforhodamine B assay; details: read-out: Activity
SK-OV-3 [14] = assay: Growth inhibition of human SKOV3 cells assessed as cell growth at 10^-7 M by sulforhodamine B assay; details: read-out: Activity
NCI-H460 = assay: Growth inhibition of human NCI-H460 cells by sulforhodamine B assay
[15] = Growth inhibition of human HCC2998 cells assessed as cell growth at 10^-7 M by sulforhodamine B assay; details: HCC 2998, read-out: Activity
[16] = read-out: LC50 (the source's name)
[17] = read-out: pLC50 (the source's name) (converted)

## C/C=C(/C)C(=O)O[C@@H]1CC(C)(C)C[C@H]2C3=CC[C@@H]4[C@@]5(C)CC[C@H](O)C(C)(C)[C@@H]5CC[C@@]4(C)[C@]3(C)CC[C@@]12C(=O)O [Reduced Lantadene A]
RXF 393
  growth at 0.1 µM: 95%
SF-295
  growth at 0.1 µM: 90%
OVCAR-8 [1]; read-out: GI50
  GI50: 1.92 µM
OVCAR-8 [1]; read-out: TGI
  TGI: 3.87 µM
OVCAR-8 [1]; read-out: pGI50 (converted)
  GI50: 1.91 µM
OVCAR-8 [1]; read-out: pTGI (converted)
  TGI: 3.89 µM
KM12; read-out: GI50
  GI50: 1.35 µM
KM12; read-out: TGI
  TGI: 2.93 µM
KM12; read-out: pGI50 (converted)
  GI50: 1.35 µM
KM12; read-out: pTGI (converted)
  TGI: 2.95 µM
SNB-19 [2]
  growth at 1 µM: 85%
NCI-H322M; read-out: GI50
  GI50: 1.78 µM
NCI-H322M; read-out: LC50
  LC50 (50% lethal concentration): 6.74 µM
NCI-H322M; read-out: TGI
  TGI: 3.46 µM
NCI-H322M; read-out: pGI50 (converted)
  GI50: 1.78 µM
NCI-H322M; read-out: pLC50 (converted)
  LC50 (50% lethal concentration): 6.76 µM
NCI-H322M; read-out: pTGI (converted)
  TGI: 3.47 µM
SNB-19 [3]; read-out: GI50
  GI50: 1.65 µM
SNB-19 [3]; read-out: TGI
  TGI: 3.37 µM
SNB-19 [3]; read-out: pGI50 (converted)
  GI50: 1.66 µM
SNB-19 [3]; read-out: pTGI (converted)
  TGI: 3.39 µM
HCT-116; read-out: GI50
  GI50: 2.45 µM
HCT-116; read-out: LC50
  LC50: 65 µM
HCT-116; read-out: TGI
  TGI: 10.1 µM
HCT-116; read-out: pGI50 (converted)
  GI50: 2.45 µM
HCT-116; read-out: pLC50 (converted)
  LC50: 64.6 µM
HCT-116; read-out: pTGI (converted)
  TGI: 10.2 µM
MDA-MB-231 [4]
  growth at 0.01 µM: 99%
NCI-H522
  growth at 1 µM: 93%
OVCAR-8 [5]
  growth at 0.1 µM: 99%
SN12C
  growth at 100 µM: -51%
MDA-MB-231 [6]
  growth at 100 µM: -63%
MOLT-4
  growth at 1 µM: 89%
Malme-3M
  growth at 1 µM: 92%
UACC-257 [7]; read-out: GI50
  GI50: 2.13 µM
UACC-257 [7]; [16]
  CC50: 19.3 µM
UACC-257 [7]; read-out: TGI
  TGI: 4.93 µM
UACC-257 [7]; read-out: pGI50 (converted)
  GI50: 2.14 µM
UACC-257 [7]; [17]
  CC50: 19.5 µM
UACC-257 [7]; read-out: pTGI (converted)
  TGI: 4.9 µM
UACC-257 [8]
  growth at 1 µM: 95%
SK-MEL-2
  growth at 100 µM: -71%
DU-145; read-out: GI50
  GI50: 2.12 µM
DU-145; read-out: TGI
  TGI: 4.04 µM
DU-145; read-out: pGI50 (converted)
  GI50: 2.14 µM
DU-145; read-out: pTGI (converted)
  TGI: 4.07 µM
SK-MEL-28
  growth at 1 µM: 90%
[9]
  growth at 100 µM: -38%
HOP-92 [10]
  growth at 0.1 µM: 76%
PC-3
  growth at 100 µM: -73%
CAKI-1
  growth at 100 µM: -65%
LOX IMVI
  growth at 0.01 µM: 97%
OVCAR-3
  growth at 1 µM: 104%
HOP-92 [11]
  growth at 0.01 µM: 91%
SK-OV-3 [12]; read-out: GI50
  GI50: 1.87 µM
SK-OV-3 [12]; read-out: pGI50 (converted)
  GI50: 1.86 µM
HOP-62
  growth at 100 µM: -37%
BT-549
  growth at 0.1 µM: 100%
A498; read-out: GI50
  GI50: 1.54 µM
A498; [16]
  CC50: 7.38 µM
A498; read-out: TGI
  TGI: 3.37 µM
A498; read-out: pGI50 (converted)
  GI50: 1.55 µM
A498; [17]
  CC50: 7.41 µM
A498; read-out: pTGI (converted)
  TGI: 3.39 µM
OVCAR-5
  growth at 0.01 µM: 100%
[13]
  growth at 100 µM: -58%
T47D
  growth at 100 µM: -36%
SF-268
  growth at 0.01 µM: 101%
SK-OV-3 [14]
  growth at 0.1 µM: 102%
NCI-H460; read-out: GI50
  GI50: 2.84 µM
NCI-H460; read-out: LC50
  LC50: > 100 µM
NCI-H460; read-out: TGI
  TGI: 11.7 µM
NCI-H460; read-out: pGI50 (converted)
  GI50: 2.82 µM
NCI-H460; read-out: pLC50 (converted)
  LC50: > 100 µM
NCI-H460; read-out: pTGI (converted)
  TGI: 11.7 µM
[15]
  growth at 0.1 µM: 104%

— ChEMBL document CHEMBL2413072, “Synthesis and in vitro anticancer studies of novel C-2 arylidene congeners of lantadenes” (2013)
